Measurements taken from PubChem BioAssay (NCI).
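All cell lines were grown in 96-well plates and treated with compound for 48 hours. TGI: concentration producing complete growth inhibition.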

What was measured:
Experiment in all cases: inhibition of tumour cell growth, NCI panel, 48 h
786-0 renal = tested on: 786-0 renal
HOP-92 NSCLC = tested on: HOP-92 NSCLC
NCI-H522 lung = tested on: NCI-H522 lung
OVCAR-8 ovarian = tested on: OVCAR-8 ovarian
PC-3 prostate = tested on: PC-3 prostate
SK-MEL-28 melanoma = tested on: SK-MEL-28 melanoma
SNB-75 CNS = tested on: SNB-75 CNS
TK-10 renal = tested on: TK-10 renal

Structure (SMILES)	TGI (786-0 renal) [µM]	TGI (HOP-92 NSCLC) [µM]	TGI (NCI-H522 lung) [µM]	TGI (OVCAR-8 ovarian) [µM]	TGI (PC-3 prostate) [µM]	TGI (SK-MEL-28 melanoma) [µM]	TGI (SNB-75 CNS) [µM]	TGI (TK-10 renal) [µM]
Cn1c(=O)c2[nH]c(CCNC(=O)c3ccccc3)nc2n(C)c1=O	> 100	> 100	> 100	> 100	> 100	> 100	> 100	> 100
Cc1cc(C)c(-n2[nH]c(=O)n(C)c2=O)c(C)c1	> 100		> 100	> 100	> 100	> 100	> 100	> 100
CC1=NN(C(=O)c2ccncc2)C(=O)C1	> 100	> 100	> 100	> 100	> 100	> 100	> 100	> 100
CCOC(=O)/C(C=Nc1c(C)n(C)n(-c2ccccc2)c1=O)=C(/C)O	> 100	> 100	> 100	> 100	> 100		> 100	> 100
C=C(Br)CNC(=O)Nc1ccc(Cl)c(Cl)c1	36	41.2	57.4		48	> 100	51.5	62.4
O=C1C=CC2(C=C1)O[C@H](Cc1ccccc1)[C@@H](Cc1ccccc1)O2	[…]	2.71	0.42	0.503	3.34	1.71	7.23	1.66
O=S1(=O)OCCOS(=O)(=O)C1(F)Br	> 100		> 100	> 100	> 100	> 100	> 100	> 100
C/C(=N\Nc1ccc([N+](=O)[O-])cc1[N+](=O)[O-])c1sc(-n2nc(-c3ccccc3)cc2-c2ccccc2)nc1C	> 100	77.4	> 100	> 100		> 100	> 100	> 100
CCC(C=O)P1(=O)OC(C)(C)CN1C(C)(C)C (centres undefined)	> 100			> 100	> 100			> 100
CCOC(=O)C1C(c2ccc3c(c2)OCO3)c2c([nH][nH]c2=O)CC1(C)O (centres undefined)	> 100	> 100	> 100	> 100	> 100	> 100	> 100	> 100
CC1(/C=C/CCSc2ccccc2)CC(=O)C2CC1C2(C)C (centres undefined)	> 54.6	> 75.4	52.3	> 100	> 100	> 100	> 100	> 70.1
O=C(O)C12C3CCC(CC3)C1(C(=O)O)C1CCC2C1 (centres undefined)	> 100		> 100	> 100	> 100	> 100	> 100	> 100
O=C1OCC2OC(=O)c3cc(O)c(O)c(O)c3-c3c(O)c(O)c(O)c4c3C(=O)OC(C2OC(=O)c2cc(O)c(O)c(O)c2-c2c1cc(O)c(O)c2O)C1OC(=O)c2c-4c(O)c(O)c(O)c2[C@@H]1C(O)C(O)C(O)C(O)CO (some centres undefined)	34.7	45.8	39.7	44.1	42.7	> 100		
COC1=CC(=O)C2=C(C1=O)[C@H]1CC[C@]3(C)[C@@H](O)CC[C@H]3[C@@H]1CC2	37.8	37.5	31.8	31.6	30	38.3	36.5	63.8
CN1c2ccccc2C(=O)NC12CCN(CCCC(=O)c1ccc(F)cc1)CC2	> 100	> 100	> 100	> 100	> 100	> 100	> 100	
Cc1n[nH]c(=O)n1N1C(=O)CCCC1=O	> 100		> 100	> 100	> 100		> 100	> 100
COc1ccc(C2SCC(=O)N2c2ccc(-c3ccc(-n4c(-c5ccccc5)nc5ccccc5c4=O)cc3)cc2)cc1OC (centres undefined)	> 100	> 100		> 100	> 100	> 100	> 100	83.9
Nc1n[n+](CC(=O)c2ccccc2)c2sc(-c3ccccc3)nn12	> 100		> 100	> 100	> 100	> 100	> 100	> 100
CC(C)(C)OC(=O)N/N=C(/N)Cc1ccc(Cl)cc1	> 100		> 100	> 100	> 100	> 100	> 100	> 100
O=[N+]([O-])c1cccc2nnccc12	50.4	71.4	20.6	> 100	> 100		> 100	> 100
COc1c(F)c(F)c(/C(O)=C\c2nc3ccccc3[nH]c2=O)c(F)c1F	5.99	> 10		> 10	> 10	> 10	6.01	> 10
CC1=NC(=Cc2cccc(Cl)c2)C(=O)N1n1c(-c2ccccc2)nc2ccccc2c1=O	> 100		67.7	> 100	> 100		> 100	> 100
COc1cc(/C=C/c2nc(NC(=S)Nc3ccccc3)nnc2C)cc(OC)c1OC	> 100	> 100	28.4	> 100	> 100	> 100		> 100
CC1CC(C)C(C#N)N(C)c2ccccc21 (centres undefined)	> 100			> 100	> 100	> 100	> 100	> 100
N#Cc1sc2c(c1OC(=O)c1ccccc1)c(=O)n(-c1ccccc1)c(=S)n2-c1ccccc1	85.1		29.8	> 100	66.6	72.4		> 100
CSc1nc2c(c(=O)[nH]1)N=C(c1ccc([N+](=O)[O-])cc1)CC(c1ccccc1)N2 (centres undefined)	> 100	> 100	> 100	> 100	> 100	> 100	74.7	
CCN1CCC(C)OP1(=O)Cc1ccccc1 (centres undefined)	> 100			> 100	> 100			> 100
